± gives the expanded uncertainty stated by the source.
assay: not given; details: 298.1 K; 101.33 kPa; Crystal; digital densimeter

`Cc1ccc2ccc(C)cc2c1` [2,7-dimethylnaphthalene] and `Cc1ccc2cc(C)ccc2c1` [2,6-dimethylnaphthalene] are within error of each other in mass density: 1010 ± 10 kg/m3 for the first, 1021 ± 10 kg/m3 for the second.

With `Cc1cc2ccccc2cc1C` [2,3-dimethylnaphthalene] the mass density was 1012 ± 10 kg/m3.

same assay, conditions: Crystal; DTA

Going from `Cc1ccc2ccc(C)cc2c1` [2,7-dimethylnaphthalene] to `Cc1ccc2cc(C)ccc2c1` [2,6-dimethylnaphthalene], the Normal melting temperature rises from 97.00 ± 0.5 °C to 112.00 ± 0.5 °C.

Going from `Cc1cccc2cccc(C)c12` [1,8-dimethylnaphthalene] to `Cc1cccc2c(C)cccc12` [1,5-dimethylnaphthalene], the Normal melting temperature rises from 65.00 ± 0.5 °C to 82.00 ± 0.5 °C.

First: Cc1ccc(C)c2ccccc12 [1,4-dimethylnaphthalene]
Second: Cc1cccc2ccccc12 [1-methylnaphthalene]
The Normal melting temperature of the first is higher: 6.00 ± 0.5 °C for the first, -30.9 ± 0.5 °C for the second.

First: Cc1cc2ccccc2cc1C [2,3-dimethylnaphthalene]
Second: Cc1ccc2ccccc2c1 [2-methylnaphthalene]
The Normal melting temperature of the first is higher: 104.00 ± 0.5 °C for the first, 34.70 ± 0.5 °C for the second.

`Cc1ccc2c(C)cccc2c1` [1,6-dimethylnaphthalene] showed a Normal melting temperature of -16.20 ± 0.5 °C.

assay: Molar enthalpy of transition or fusion; details: Crystal; DSC

Compared with `Cc1ccc2ccc(C)cc2c1` [2,7-dimethylnaphthalene], `Cc1ccc2cc(C)ccc2c1` [2,6-dimethylnaphthalene] is higher in “Molar enthalpy of transition or fusion” value: 5.31 ± 0.158 kcal/mol for the first, 6.05 ± 0.174 kcal/mol for the second.

Going from `Cc1cccc2cccc(C)c12` [1,8-dimethylnaphthalene] to `Cc1cccc2c(C)cccc12` [1,5-dimethylnaphthalene], the “Molar enthalpy of transition or fusion” value rises from 4.43 ± 0.134 kcal/mol to 4.78 ± 0.143 kcal/mol.

Going from `Cc1ccc(C)c2ccccc12` [1,4-dimethylnaphthalene] to `Cc1cc2ccccc2cc1C` [2,3-dimethylnaphthalene], the “Molar enthalpy of transition or fusion” value rises from 2.53 ± 0.0884 kcal/mol to 5.73 ± 0.167 kcal/mol.

With `Cc1ccc2c(C)cccc2c1` [1,6-dimethylnaphthalene] the “Molar enthalpy of transition or fusion” value was 2.03 ± 0.0741 kcal/mol.
